Data as given in patent US5679671A, “Amino acid derivative” (Eisai Co., Ltd., priority 1993, dated 1997).

Experiments:
NEP [1] = biological target: T1, NEP (Rattus norvegicus, UniProt P07861); assay: NEP inhibition activity (Experiment C-1); assay type: biochemical; settings: Table C-1
T1 sequence (P07861 1-750): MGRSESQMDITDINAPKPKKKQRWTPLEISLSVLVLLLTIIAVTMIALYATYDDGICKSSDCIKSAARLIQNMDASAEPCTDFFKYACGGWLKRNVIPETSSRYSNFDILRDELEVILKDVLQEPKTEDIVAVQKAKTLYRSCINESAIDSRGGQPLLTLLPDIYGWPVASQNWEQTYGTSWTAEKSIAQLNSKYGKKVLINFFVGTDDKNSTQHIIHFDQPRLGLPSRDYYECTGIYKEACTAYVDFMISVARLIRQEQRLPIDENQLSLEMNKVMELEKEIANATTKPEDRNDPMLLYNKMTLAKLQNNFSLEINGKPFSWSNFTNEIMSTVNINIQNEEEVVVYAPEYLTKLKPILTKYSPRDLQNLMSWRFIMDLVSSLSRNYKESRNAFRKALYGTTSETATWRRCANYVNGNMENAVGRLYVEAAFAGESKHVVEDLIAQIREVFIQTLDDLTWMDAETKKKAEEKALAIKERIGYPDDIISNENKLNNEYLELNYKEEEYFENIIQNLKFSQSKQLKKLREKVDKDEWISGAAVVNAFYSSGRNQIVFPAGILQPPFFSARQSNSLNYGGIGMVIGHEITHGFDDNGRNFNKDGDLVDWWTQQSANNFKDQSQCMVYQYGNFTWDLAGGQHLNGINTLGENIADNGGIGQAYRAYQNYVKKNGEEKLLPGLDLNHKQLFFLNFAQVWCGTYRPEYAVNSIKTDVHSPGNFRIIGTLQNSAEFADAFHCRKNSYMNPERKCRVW
Procedure: The NEP activity was determined by the following manner in accordance with the method of Orlowsky and Wilk (Purification and Specificity of a Membrane-Bound Metalloendpeptidase from Bovine Pituitaries., Marian Orlowsky and Shrwin Wilk, Biochemistry, 1981, 20, 4942-4950.).
(§1) As a substrate, benzoyl-glycyl-arginyl-arginyl-2-naphthylamide (benzoyl-Gly-Arg-Arg-2-naphthylamide (Nova Biochem, Switzerland)) was used. In the presence of an NEP enzyme preparation and excessive leucine aminopeptidase (sigma chemical Co., U.S.A.), the liberated naphthylamine was made to undergo color development with first garnet (Sigma chemical Co., U.S.A.), followed by the measurement of the absorbance at a wavelength of 540 nm.
With respect to the NEP inhibition activity, the test compound was added to the experimental system as described above in such a manner as to give the final concentrations of 1, 3, 10, 30, 100, 300 and 1000 nM, an inhibition curve was prepared, and then the concentration at which 50% inhibition was achieved was taken as IC50. As a comparative compound, [4S-[4α,7α(R*),12bβ]]-7-[(1-oxo-2-(S)-thio-3-phenyl-propyl)amino]-1,2,3,4,6,7,8,12b-octahydro-6-oxopyrido-[2,1-a][2]benzazepine-4-carboxylic acid was used.

[2] = tested on: 2K-1C-Goldblatt Hypertensive Rat; assay: Hypotensive effect on 2K-1C-Goldblatt hypertensive rat, oral (Experiment C-3); assay type: in vivo, male Sprague Dawley rats
Procedure: A silver clip with a slit of 0.25 mm in width was fitted into the left renal artery of each of male Sprague Dawley rats (aged 6 to 7 weeks) and, after three weeks, rats showing a systolic blood pressure of 180 mmHg or above were employed. One to several drops of a 1N aqueous solution of sodium hydroxide were dropped into purified water and each test compound was dissolved or emulsified therein to prepare it at a dose of 5 ml/kg, followed by orally administration. After keeping the rats in an incubator at 45° C. for 5 to 10 minutes, the systolic blood pressure was measured by the indirect method of tail artery plethysmography. As a comparative compound, [4S-[4α,7α(R*),12bβ]]-7-[(1-oxo-2-(S)-thio-3-phenyl-propyl)amino[-1,2,3,4,6,7,8,12b-octahydro-6-oxo-pyrido[2,1-a][2]benzazepine-4-carboxylic acid was used.

NEP [3] = biological target: T1, NEP; assay: NEP inhibition activity (Experiment F-1); assay type: biochemical; parameters: membrane fraction prepared from rat renal cortex; from tissue; host or cells: rat renal cortex, membrane fraction (method of Booth and Kenny); settings: rat renal cortex membrane fraction
Procedure: As a source of the enzyme NEP, a membrane fraction prepared from rat renal cortex in accordance with the method of Booth and Kenny (A Rapid Method for the Purification of Microvilli from Rabbit Kidney., Andrew G. Booth and A. John Kenny, Biochem. j., 1974, 142, 575-581.) was employed. The NEP activity was determined in accordance with the method of Orlowsky and Wilk (Purification and Specificity of a Membrane-Bound Metalloendpeptidase from Bovine Pituitaries., Marian Orlowsky and Shrwin Wilk, Biochemistry, 1981, 20, 4942-4950.). Now the procedure will be briefly described.
as §1
With respect to the NEP inhibition activity and the ACE inhibition activity, the inhibitor was added to the assay systems of both enzyme activities as described above in such a manner as to give the final concentrations of 1, 3, 10, 30, 100, 300 and 1000 inhibition curves were prepared, and then the concentration at which 50% inhibition was achieved was taken as IC50.

NEP [4] = biological target: T1, NEP; assay: NEP inhibition activity using rat renal cortex (Experiment A-1); assay type: biochemical; parameters: membrane fraction prepared from rat renal cortex; from tissue; host or cells: rat renal cortex, membrane fraction (method of Booth and Kenny); settings: rat renal cortex membrane fraction
Procedure: The NEP activity was determined by using a membrane fraction prepared from rat renal cortex in accordance with the method of Booth and Kenny (A Rapid Metod for the Purificaton of Microvilli from Rabbit Kidney., Andrew G. Booth and A. John Kenny, Biochem j., 1974, 142, […].).
The NEP activity was determined by the following manner in accordance with the method of Orlowsky and Wilk (Purification and Specificity of a Membrane-Bound Metalloendopeptidase from Bovine Pituitaries., Marian Orlowsky and Shrwin Wilk, Biochemistry, 1981, 20, 4942-4950.).
as §1
With respect to the NEP inhibition activity, the inhibitor was added to the experimental system as described above in such a manner as to give the final concentrations of 1, 3, 10, 30, 100, 300 and 1000 nM, an inhibition curve was prepared, and then the concentration at which 50% inhibition was achieved was taken as IC50.

| Compound | IC50 (NEP [1]) [nM] | Decrease (%) in blood pressure after 1-3 hrs. ([2]; 1 mg/kg oral, after 2 hrs) [%] | Decrease (%) in blood pressure after 6 hrs. ([2]; 1 mg/kg oral) [%] | IC50 (NEP [3]) [nM] | Decrease (%) in blood pressure after 6 hrs. ([2]; 3 mg/kg oral) [%] | IC50 (NEP [4]) [nM] | further results |
| --- | --- | --- | --- | --- | --- | --- | --- |
| CC[C@H](C)[C@H](S)C(=O)N[C@H]1CCC[C@H]2SC[C@@H](C(=O)O)N2C1=O [Example C-8, [3R-[3α,6α,(S*),9aβ]]-6-[[(2S,3S)-3-methyl-1-oxo-2-thiopentyl]amino]-octahydro-5-oxothiazol[3,2-a]-azepine-3-carboxylic acid] | 13.4 | 28.4 | 25.3 | 9.2 |  |  |  |
| CC[C@H](C)[C@H](S)C(=O)N[C@H]1Cc2ccc(-c3ccccc3)cc2[C@H]2CCC[C@@H](C(=O)O)N2C1=O [Example C-14, [4S-[4α,7α(R*),12bβ]]-7-[[(2S,3S)-3-Methyl-1-oxo-2-thiopentyl]amino]-6-oxo-11-phenyl-1,2,3,4,6,7,8,12b-octahydropyrido[2,1-a][2]benzazepine-4-carboxylic acid] | 17.8 |  | 12.7 |  | 22.2 |  | Decrease (%) in blood pressure after 1-3 hrs. ([2]; 1 mg/kg oral, after 3 hrs): 13.4%; Decrease (%) in blood pressure after 1-3 hrs. ([2]; 3 mg/kg oral, after 3 hrs): 25.9% |
| CC[C@H](C)[C@H](S)C(=O)NC1CCc2ccccc2N(CC(=O)O)C1=O (stereo partly drawn) [Example A-9, 1-Carboxymethyl-3-[(2S,3S)-2-mercapto-3-methylvarelylamino]-1H-[1]benzazepin-2-one] | 12.5 | 17.3 | 20.8 |  |  | 13 |  |
| CC[C@H](C)[C@H](S)C(=O)N[C@H]1CCc2ccccc2N(CC(=O)O)C1=O [Example A-11, (S)-3-[(2S,3S)-2-Mercapto-3-methylvarelylamino]-1-carboxymethyl-2,3,4,5-tetrahydro-1H-[1]benzazepin-2-one] | 6.2 |  |  |  |  | 6.2 |  |
| O=C(N[C@H]1CCC[C@H]2SC[C@@H](C(=O)O)N2C1=O)[C@@H](S)Cc1ccccc1 [Example F-17, [3R-[3α,6α(S*),9aβ]]-6-[[(S)-1-Oxo-2-thio-3-phenylpropyl]amino]-octahydro-5-oxothiazol[3,2-a]-azepine-3-carboxylic acid] |  |  |  | 11.1 |  |  |  |
| O=C(N[C@H]1Cc2ccccc2[C@H]2CCC[C@@H](C(=O)O)N2C1=O)[C@@H](S)Cc1ccccc1 [Comp. cpd. E-1, [4S-[4α,7α(R*),12bβ]]-7-[(1-oxo-2-(S)-thio-3-phenyl-propyl)amino]-1,2,3,4,6,7,8,12b-octahydro-6-oxopyrido-[2,1-a][2]benzazepine-4-carboxylic acid, reference compound] | 27 |  |  | 13.5 | 12.9 |  | Decrease (%) in blood pressure after 1-3 hrs. ([2]; 3 mg/kg oral, after 1 hr): 15.4%; Decrease (%) in blood pressure after 1-3 hrs. ([2]; 10 mg/kg oral, after 1 hr): 14.2%; Decrease (%) in blood pressure after 6 hrs. ([2]; 10 mg/kg oral): 19.1% |
